Assay results from patent publication EP0080283B1, “N-carboxyalkylproline-containing tripeptides” (SMITHKLINE BECKMAN CORPORATION, priority 1981, dated 1983).
Where a name gives a salt, the structure may show the parent alone.

How the values were obtained:
[1] = tested on: anesthetized dogs; test: renal anesthetized dog screening protocol (renal vasodilator activity test, infusion); assay type: in vivo; design: renal blood flow / renal vascular resistance: dose or concentration left out as unconfirmed; conditions: for renal vasodilators: primary test period of the screening protocol
From the text: Representative specific results are included in the examples.

[2] = bradycardic effect (heart rate; test not specified); conditions: in vivo
[3] = tested on: dopamine-sensitive adenylate cyclase system; test: dopamine-sensitive adenylate cyclase system in vitro; assay type: biochemical
[4] = tested on: toad bladder; test: toad bladder anti-ADH assay
[5] = tested on: angiotensin coverting enzyme; test: angiotensin converting enzyme inhibiting activity; assay type: in vivo; conditions: at 10 times its renally effective dose
[6] = tested on: spontaneously hypertensive rats (SHR); test: spontaneously hypertensive rat test, diuretic naturetic assay; assay type: in vivo
Description: In this test, male, Okamato-Aoki strain, spontaneously hypertensive rats, aged 16-19 weeks, are fasted, then, the following afternoon, the first dose of test compound is adminstered, along with a 25 ml/kg p.o. load of normal saline. The animals are, then, placed in metabolism cages and urine collected for three hours for analysis. Indirect systolic blood pressure and heart rate are measured by a tail-cuff. An identical second dose of test compound is adminstered. After two hours, blood pressure and heart rate are again tested. The test compound is usually administered p.o. or i.p. in saline with 0.02% ascorbic acid.

[7] = 30 µg/kg/min, 3 anesthetized dogs
[8] = two anesthetized dogs, 3, 30 and 300
[9] = accumulative effect at 300 dose, 2 anesthetized dogs

For C[C@H](NC(=O)[C@@H]1CCCN1CC(=O)O)C(=O)N1CCC[C@H]1C(=O)O [Example 1 barium salt, N-carboxymethyl-L-propyl-L-alanyl-L-proline], the “decrease in renal vascular resistance” value [1, 7] was 15% and the “increase in renal blood flow” value [1, 7] was 21.7%.

For O=C(O)CN1CCC[C@H]1C(=O)N[C@@H](Cc1ccccc1)C(=O)N1CCC[C@H]1C(=O)O [Example 2 barium salt, N-carboxymethyl-L-prolyl-L-phenylalanyl-L-proline], the “activity within the parameters of anesthetized dog screening test” value ([1]; dog, in vivo) was “not active”.

For O=C(O)CN1CCC[C@H]1C(=O)N[C@@H](Cc1ccccc1)C(=O)N1CCC[C@H]1C(=O)O [Example 2 sulfate, N-carboxymethyl-L-prolyl-L-phenylalanyl-L-proline], the renal blood flow ([1]; 30 and 300) was “increased renal blood flow”.

With O=C(O)CN1CCC[C@H]1C(=O)NCCC(=O)N1CCC[C@H]1C(=O)O [Example 3, N-carboxymethyl-L-prolyi-o-alanyl-L-proline sulfate] the bradycardic effect [2] was “weak bradycardic effect”, the “stimulate or antagonize the dopamine-sensitive adenylate cyclase system” value [3] was “did not stimulate or antagonize” and the “toad bladder anti-ADH assay activity” value [4] was “nor was it active”. For the same compound, the ED15 ([1]; Canis lupus familiaris, iv, anesthetized renal dog protocol, read-out: RVR-ED15) was 0.012 mg/kg, the renal blood flow [1, 8] was “increased renal blood flow” and the renal vascular resistance [1, 8] was “decreased renal vascular resistance”. The “angiotensin coverting enzyme inhibiting activity” value [5] was “did not have angiotensin coverting enzyme inhibiting activity”, the Urine ([6]; 25 mg/kg i.p., n=3, control 3) was 16 ml/rat and the “K^9” value ([6]; 25 mg/kg i.p., n=3, control 85.12) was 242.53. The “Na⊕” value ([6]; 25 mg/kg i.p., n=3, control 126.76) was 676.04 and the “Na^l, K° or urine excretion” value ([6]; 25 and 50 mg/kg i.p.) was “significant increase”.

For C[C@H](NC(=O)[C@@H]1CCCN1CCC(=O)O)C(=O)N1CCC[C@H]1C(=O)O [Example 4, N-(2-carboxyethyl)-L-prolyl-L-alanyl-L-proline], the “decrease in renal vascular resistance” value [1, 9] was 23% and the “increase in renal blood flow” value [1, 9] was 34%.

In the case of CC(C(=O)O)N1CCC[C@H]1C(=O)NCCC(=O)N1CCC[C@H]1C(=O)O (stereo partly drawn) [N-(1-carboxyethyl)-L-propyl-β-alanyl-L-proline, reference compound], the renal vasodilators [1] is reported as “inactive”.

In the case of NCCCC[C@H](NC(=O)[C@@H]1CCCN1CC(=O)O)C(=O)N1CCC[C@H]1C(=O)O [N-carboxymethyl-L-propyl-L-lysyl-L-proline, reference compound], the renal vasodilators [1] is reported as “inactive”.

For O=C(O)CN1CCCC1C(=O)NCC(=O)N1CCC[C@H]1C(=O)O (stereo partly drawn) [N-carboxymethyl-propyl-glycyl-L-proline, reference compound], the renal vasodilators [1] was “inactive”.
